Tests used:
[1] = Solubility screen of the free acid in various solvents (incremental solvent addition, visual); assay type: physicochemical; details: Ca. 10 mg free acid
Excerpt: The free base (or zwitterionic) Compound 1 can be dissolved in unbuffered water, a range of organic solvents, mixtures of organic solvents and mixtures of solvents with unbuffered water. The solvents assessed were 1,1-dimethoxyethane, acetonitrile, ethanol, 1,2-dichloroethane, benzonitrile, ethyl acetate, 1,4-dioxane, anisole, heptane, 2-butanol, cumene, hexane, 2-propanol, cyclohexane, isopropyl acetate, 4-methyl-pentan-2-one, dichloromethane, methanol, acetone, diisopropyl ether (DIPE), isobutyl acetate, tetralin, toluene, methylethyl ketone, N-methylpyrrolidone, tert-butylmethyl ether, nitromethane, pyridine, tetrahydrofuran.
Ca. 10 mg of the free acid of Compound 1 was weighed into 2 mL HPLC vials prior to the addition of solvent in 100-250 μL increments up to a maximum of 1750 μL. After each addition of solvent the samples were briefly shaken to encourage dissolution and visually inspected for signs of any remaining solid. Once the maximum volume of solvent had been added, 1.1 eq of 1M NaOH(aq) solution was also added, to give an indication as to which of the solvents would yield a suitable salt form. The samples were visually inspected prior to maturation for 2 days, after which all were inspected again. All the samples were then left to evaporate at RT to generate solid material.

[2] = Aqueous solubility assessment of salt screen solids (visual); details: Ca. 5 mg in up to 4000 μL water (1.25 mg/ml), shaken overnight at 50° C.; for Solubility assessment (dissolution in deionized water), salt from MIBK: salt prepared from MIBK; for Solubility assessment (dissolution in deionized water), salt from DIPE: salt prepared from DIPE; for Solubility assessment (dissolution in deionized water), salt From Ethanol: salt prepared from ethanol
Procedure: Aqueous solubility assessment was performed using Ca. […] These samples were added to aliquots of deionized water up to a maximum of 4000 μL with the samples being shaken between additions to encourage dissolution prior to a visual inspection.

[3] = Dynamic vapor sorption (DVS); assay type: physicochemical; details: for XRPD post DVS: after double cycle 0-90% RH
Procedure: SMS DVS Intrinsic dynamic vapour sorption instrument using DVS-Intrinsic control software v1.0.6.0. Analysis of the data was performed using the DVS analysis suite v7.0.13.1 macro program embedded in Microsoft Excel. Analysis was performed as a wt % change from 0-90% RH with isothermal plots also being examined.
Ca. 10-15 mg of sample was weighed into a stainless steel DVS basket before submitting for analysis. The samples were analysed over the range of 0-90% RH with a maximum time of 6 hours per humidity stage. Each sample was exposed to a double cycle. XRPD analysis of all samples was performed post-DVS.

[4] = pH1 stability; assay type: physicochemical; details: pH 1 buffer, 4 h at 37° C.; for Chemical purity post stability (pH 1 for 4 h): HPLC; for 1H NMR post stability (pH 1 for 4 h): cell continues: salt form is no longer present
Procedure: Ca. 25 mg of each of the salts were weighed into a 2 mL HPLC vial prior to the addition of 1 mL of pH 1 buffer. The samples were then shaken for 4 h at 37° C. before being filtered into SPE cartridges and dried overnight.

[5] = Aqueous solubility, 24 h shake, gravimetric; assay type: physicochemical; details: thermodynamic from solid, deionized water
Procedure: Ca. 50 mg of each of the salts were weighed into a 2 mL HPLC vial prior to the addition of 1 mL of deionized water. […] The experiment was also repeated at 50° C.

[6] = FaSSIF/FeSSIF solubility; assay type: physicochemical; details: thermodynamic from solid, shaken 24 h at 37° C.
Procedure: Ca. 25 mg of each of the salts were weighed into a 2 mL HPLC vial prior to the addition of 1 mL of Fasting State Simulated Intenstinal Fluid (FaSSIS) solution. […] The experiment was also repeated using Fed State Simulated Intestinal Fluid (FeSSIF) solution.

[7] = Stability at 40° C./75% RH; assay type: physicochemical; details: for Chemical purity post stability (40° C./75% RH): HPLC
[8] = pH of saturated solution; assay type: physicochemical; details: saturated solution in deionized water, room temperature
Procedure: A saturated solution of each of the salts was prepared in 5 mL of deionized water at room temperature prior to analysis.

Q: With O=C(CSc1ccc(Br)cc1)Nc1cn(CCc2ccccc2)nc1C(=O)O [Compound 1, 4-(2-((4-bromophenyl)thio)acetamido)-1-phenethyl-1H-pyrazole-3-carboxylic acid] as the compound, how does the “Solvent Addition” value ([1]; solvent 1,1-Dimethoxyethane, increments up to maximum 1750 μL) read?
A: 1750 µL

Q: What about the “Solvent Addition” value ([1]; solvent 1,2-Dichloroethane, maximum 1750 μL) of the same compound?
A: 1750 µL

Q: What about the “Solvent Addition” value ([1]; solvent 1,4-Dioxane, maximum 1750 μL) of the same compound?
A: 750 µL

Q: And the “Solvent Addition” value ([1]; solvent 2-Butanol, maximum 1750 μL)?
A: 1750 µL

Q: And the “Solvent Addition” value ([1]; solvent 2-Propanol, maximum 1750 μL)?
A: 1750 µL

Q: And the “Solvent Addition” value ([1]; solvent 4-methyl-pentan-2-one, maximum 1750 μL)?
A: 1750 µL

Q: What about the “Solvent Addition” value ([1]; solvent Acetone, maximum 1750 μL) of the same compound?
A: 1750 µL

Q: What about the “Solvent Addition” value ([1]; solvent Acetonitrile, maximum 1750 μL) of the same compound?
A: 1750 µL

Q: And the “Solvent Addition” value ([1]; solvent Anisole, maximum 1750 μL)?
A: 1750 µL

Q: And the “Solvent Addition” value ([1]; solvent Benzonitrile, maximum 1750 μL)?
A: 1750 µL

Q: And the “Solvent Addition” value ([1]; solvent Cumene, maximum 1750 μL)?
A: 1750 µL

Q: And the “Solvent Addition” value ([1]; solvent Cyclohexane, maximum 1750 μL)?
A: 1750 µL

Q: And the “Solvent Addition” value ([1]; solvent Dichloromethane, maximum 1750 μL)?
A: 1750 µL

Q: And the “Solvent Addition” value ([1]; solvent Diisopropyl ether, maximum 1750 μL)?
A: 1750 µL

Q: What about the “Solvent Addition” value ([1]; solvent Ethanol, maximum 1750 μL) of the same compound?
A: 1750 µL

Q: And the “Solvent Addition” value ([1]; solvent Ethyl acetate, maximum 1750 μL)?
A: 1750 µL

Q: What about the “Solvent Addition” value ([1]; solvent Heptane, maximum 1750 μL) of the same compound?
A: 1750 µL

Q: What about the “Solvent Addition” value ([1]; solvent Hexane, maximum 1750 μL) of the same compound?
A: 1750 µL

Q: What about the “Solvent Addition” value ([1]; solvent Isobutyl Acetate, maximum 1750 μL) of the same compound?
A: 1750 µL

Q: What about the “Solvent Addition” value ([1]; solvent Isopropyl acetate, maximum 1750 μL) of the same compound?
A: 1750 µL

Q: And the “Solvent Addition” value ([1]; solvent Methanol, maximum 1750 μL)?
A: 1750 µL

Q: What about the “Solvent Addition” value ([1]; solvent Methylethyl ketone, maximum 1750 μL) of the same compound?
A: 1750 µL

Q: What about the “Solvent Addition” value ([1]; solvent N-Methylpyrrolidone, maximum 1750 μL) of the same compound?
A: 250 µL

Q: What about the “Solvent Addition” value ([1]; solvent Nitromethane, maximum 1750 μL) of the same compound?
A: 1750 µL

Q: And the “Solvent Addition” value ([1]; solvent Pyridine, maximum 1750 μL)?
A: 1750 µL

Q: And the “Solvent Addition” value ([1]; solvent Tetrahydrofuran, maximum 1750 μL)?
A: 750 µL

Q: And the “Solvent Addition” value ([1]; solvent Tetralin, maximum 1750 μL)?
A: 1750 µL

Q: And the “Solvent Addition” value ([1]; solvent Toluene, maximum 1750 μL)?
A: 1750 µL

Q: What about the “Solvent Addition” value ([1]; solvent Water, maximum 1750 μL) of the same compound?
A: 1750 µL

Q: What about the “Solvent Addition” value ([1]; solvent tert-Butylmethyl ether, maximum 1750 μL) of the same compound?
A: 1750 µL

Q: Which “Solubility assessment (dissolution in deionized water), salt from MIBK” value [2] does the source give for O=C(CSc1ccc(Br)cc1)Nc1cn(CCc2ccccc2)nc1C(=O)O.c1ccc(CNCCNCc2ccccc2)cc1 [N,N′-Dibenzylethylenediamine, salt of 4-(2-((4-bromophenyl)thio)acetamido)-1-phenethyl-1H-pyrazole-3-carboxylic acid and N,N′-dibenzylethylenediamine] here?
A: No dissolution

Q: With CCNC[C@H](O)[C@@H](O)[C@H](O)[C@H](O)CO.O=C(CSc1ccc(Br)cc1)Nc1cn(CCc2ccccc2)nc1C(=O)O [N-Ethylglucamine, salt of 4-(2-((4-bromophenyl)thio)acetamido)-1-phenethyl-1H-pyrazole-3-carboxylic acid and N-ethylglucamine] as the compound, how does the “Solubility assessment (dissolution in deionized water), salt from DIPE” value [2] read?
A: Partial

Q: And the “Solubility assessment (dissolution in deionized water), salt From Ethanol” value (from here on “Solubility assessment … salt From Ethanol”) [2]?
A: Partial

Q: Which “Solubility assessment … salt From Ethanol” value [2] does the source give for CNC[C@H](O)[C@@H](O)[C@H](O)[C@H](O)CO.O=C(CSc1ccc(Br)cc1)Nc1cn(CCc2ccccc2)nc1C(=O)O [N-Methylglucamine, salt of 4-(2-((4-bromophenyl)thio)acetamido)-1-phenethyl-1H-pyrazole-3-carboxylic acid and N-methylglucamine] here?
A: Partial

Q: Which “DVS mass increase between 0-90% RH, first cycle” value ([3]; 0-90% RH) does the source give for O=C(CSc1ccc(Br)cc1)Nc1cn(CCc2ccccc2)nc1C(=O)[O-].[K+] [potassium salt, 4-(2-((4-bromophenyl)thio)acetamido)-1-phenethyl-1H-pyrazole-3-carboxylic acid potassium salt] here?
A: Ca. 5.7% mass increase between 0-90% RH on the first cycle

Q: And the “XRPD post DVS” value [3]?
A: Partially crystalline-pattern is different from free acid indicating

Q: And the “Observations post stability (pH 1 for 4 h)” value [4]?
A: No visual change

Q: And the “XRPD post stability (pH 1 for 4 h)” value [4]?
A: Partially crystalline: change in crystalline form compared to the

Q: And the “Chemical purity post stability (pH 1 for 4 h)” value [4]?
A: >99.9% (by peak area)

Q: And the “1H NMR post stability (pH 1 for 4 h)” value [4]?
A: Reduction in chemical shifts, indicating that salt form is no

Q: What about the solubility at 24 h ([5]; shaken 24 h at 25° C., read-out: Aqueous solubility @ 25° C.) of the same compound?
A: 6600 µg/mL

Q: What about the solubility at 24 h ([5]; shaken 24 h at 50° C.) of the same compound?
A: 16200 µg/mL

Q: And the “Solubility assessment (dissolution in deionized water), salt from DIPE” value [2]?
A: Complete

Q: And the “Solubility assessment (dissolution in deionized water), salt from MIBK” value [2]?
A: Partial

Q: What about the “Solubility assessment … salt From Ethanol” value [2] of the same compound?
A: Complete

Q: What about the solubility at 24 h ([6]; FaSSIF, read-out: FaSSIF solubility @ 37° C.) of the same compound?
A: 1500 µg/mL

Q: And the solubility at 24 h ([6]; FeSSIF, read-out: FeSSIF solubility @ 37° C.)?
A: 1600 µg/mL

Q: What about the “Observation post stability (40° C./75% RH)” value [7] of the same compound?
A: No visible change

Q: What about the “XRPD post stability (40° C./75% RH)” value [7] of the same compound?
A: Partially crystalline-no change in form

Q: And the “Chemical purity post stability (40° C./75% RH)” value [7]?
A: >99.9% (by peak area)

Q: And the “pH of rm temp sat'd sol'n” value [8]?
A: 9.21

Q: Which results are given for “salt of 4-(2-((4-bromophenyl)thio)acetamido)-1-phenethyl-1H-pyrazole-3-carboxylic acid and N-(phenylmethyl)benzeneethaneamine [N-(Phenylmethyl) benzeneethaneamine]”?
A: Solubility assessment (dissolution in deionized water), salt from DIPE [2]: No dissolution; Solubility assessment (dissolution in deionized water), salt From Ethanol [2]: No dissolution

Q: With “salt of 4-(2-((4-bromophenyl)thio)acetamido)-1-phenethyl-1H-pyrazole-3-carboxylic acid and calcium acetate” as the compound, how does the “Solubility assessment … salt From Ethanol” value [2] read?
A: No dissolution

Q: Which results are given for “salt of 4-(2-((4-bromophenyl)thio)acetamido)-1-phenethyl-1H-pyrazole-3-carboxylic acid and diethylamine [diethylamine salt]”?
A: DVS mass increase between 0-90% RH, first cycle ([3]; 0-90% RH): Ca. 0.1% mass increase between 0-90% RH on the first cycle; DVS mass increase between 0-90% RH, second cycle ([3]; 0-90% RH, second cycle): Ca. 0.1% mass increase between 0-90% RH on the first cycle; XRPD post DVS [3]: Crystalline-no change in form; Observations post stability (pH 1 for 4 h) [4]: No visual change; Chemical purity post stability (pH 1 for 4 h) [4]: >99.9% (by peak area); 1H NMR post stability (pH 1 for 4 h) [4]: Reduction in chemical shifts, indicating that salt form is no; Observation post stability (40° C./75% RH) [7]: No visible change; XRPD post stability (40° C./75% RH) [7]: Crystalline-no change in form; Chemical purity post stability (40° C./75% RH) [7]: >99.9% (by peak area)

Q: For “salt of 4-(2-((4-bromophenyl)thio)acetamido)-1-phenethyl-1H-pyrazole-3-carboxylic acid and magnesium acetate”, which “Solubility assessment … salt From Ethanol” value [2] is on record?
A: No dissolution

Q: For “salt of 4-(2-((4-bromophenyl)thio)acetamido)-1-phenethyl-1H-pyrazole-3-carboxylic acid and tromethamine”, which “Solubility assessment … salt From Ethanol” value [2] is on record?
A: No dissolution

Source: patent publication US11242321B2, “Salt forms of organic compound” (KAINOS MEDICINE INC., priority 2018, dated 2022)
